Measured values as given in ChEMBL document CHEMBL1201862, “PubChem BioAssay data set” (2004).
Values belong to the compound of their own block, whether it stands above or below them. Activity calls are given as the source filed them.

How the values were obtained:
Vero = Vero cell cytotoxicity, cytotoxicity control for flavivirus capping enzyme inhibitors (AID 588742); type: functional; conditions: Chlorocebus sabaeus
Genome polyprotein = Genome polyprotein (dengue virus type 2, UniProt P29990); test: Dengue-2 NS5 methyltransferase inhibitors, primary screen, biochemical, confirmation dose response (AID 588689); type: functional
Candida albicans = test: reversal of fluconazole resistance in C. albicans, dose response, CaCi-2 strain, Alamar Blue, dry powder, set 3 (AID 488907); type: functional, organism-based
[1] = NIH-3T3 fibroblast cytotoxicity, dose response, cytotoxicity control, cell-based, fluorescence, Alamar Blue, secondary assay (AID 2327); type: functional;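 also: NIH-3T3 mouse fibroblasts cultured with fluconazole at 8 µg/mL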
[2] = C. albicans growth with fluconazole, confirmation, fluorescence, retest (AID 2467); type: functional, cell-based
[3] = target: Serine/threonine-protein phosphatase (Candida dubliniensis (strain CD36 / CBS 7987 / NCPF 3949 / NRRLY-17841) (Yeast), UniProt B9W6M3); test: calcineurin pathway inhibitors in yeast reporter, dose response, S. cerevisiae, CDRE-lacZ, luminescence, secondary (AID 2388); type: functional, cell-based;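 also: yeast reporter cells carrying a calcineurin-responsive lacZ construct stimulated with calcium chloride; luminescent beta-galactosidase reporter signal in whole cells rather than isolated phosphatase activity; potency for inhibition where a drop in reporter signal means calcineurin blockade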
[4] = target: ATP-dependent molecular chaperone HSP82 (Candida albicans (strain WO-1) (Yeast), UniProt C4YTQ8); test: loss of DOC-induced GRE-beta-galactosidase reporter signal, dose response, Hsp90 inhibitor project, S. cerevisiae, luminescence (AID 2400); type: functional, cell-based;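 also: beta-galactosidase luminescence from glucocorticoid response element reporter as proxy for Hsp90 function; inhibitor potency where signal loss means Hsp90 inhibition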
Beta-galactosidase = Beta-galactosidase (Escherichia coli, UniProt Q8VNN2); test: PubChem AID 485352; type: functional
[5] = target: Type-1 angiotensin II receptor (Homo sapiens, UniProt P30556); test: AT1 receptor antagonists, dose response, selectivity assay for APJ receptor antagonist project, cell-based, uHTS hits (AID 463214); type: functional;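 also: antagonist potency against angiotensin II stimulated AT1 response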
[6] = growth suppression of PTEN-null colon cells, dose response, cell-based, HCT116 PTEN knockout (AID 1047); type: functional;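 also: HCT116 colon tumor cells with PTEN knocked out; cells exposed to compound for 60 hours before readout; potency for loss of cell viability measured by luminescence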
[7] = growth suppression of beta-catenin-knockout colon cells, dose response, cell-based, HCT116, human colon tumor (AID 1045); type: functional;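 also: HCT116 colon tumor cells with beta catenin knocked out; cells exposed to compound for 60 hours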
[8] = target: T1, Microphthalmia-associated transcription factor (Homo sapiens, UniProt O75030); test: TRPM1 promoter luciferase signal decrease, dose response, MITF inhibitor project, cell-based, SK-MEL-5, cherry-picked, set 3 (AID 493073); type: functional
T1 sequence (O75030 whole entry): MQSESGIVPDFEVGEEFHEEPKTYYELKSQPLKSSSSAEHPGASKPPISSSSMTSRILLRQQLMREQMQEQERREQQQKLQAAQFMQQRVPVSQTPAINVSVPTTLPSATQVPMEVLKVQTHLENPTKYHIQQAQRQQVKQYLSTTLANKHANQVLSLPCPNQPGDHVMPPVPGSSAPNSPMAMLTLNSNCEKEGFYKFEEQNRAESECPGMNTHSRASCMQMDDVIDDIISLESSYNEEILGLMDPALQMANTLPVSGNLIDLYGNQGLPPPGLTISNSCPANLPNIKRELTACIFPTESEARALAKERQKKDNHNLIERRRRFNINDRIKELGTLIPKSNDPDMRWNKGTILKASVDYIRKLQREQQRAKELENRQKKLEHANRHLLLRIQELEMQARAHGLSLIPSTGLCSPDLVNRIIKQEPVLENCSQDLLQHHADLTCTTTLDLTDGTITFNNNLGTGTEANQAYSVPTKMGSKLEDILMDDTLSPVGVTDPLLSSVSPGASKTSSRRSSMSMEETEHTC

A-375 = test: MITF: Counter assay: A375 proliferation Measured in Cell-Based System Using Plate Reader - 2084-03_Inhibitor_Dose_DryPowder_Activity. [Related pubchem assays (depositor defined):AID488944]; type: functional; conditions: Homo sapiens
INS1 = test: beta cell apoptosis inhibitors, cytokine rescue, dose response, luminescence, retest (AID 449756); type: functional, cell-based;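 also: cell death triggered by IL-1 beta plus TNF-alpha plus IFN-gamma mixture; protective hits raise ATP signal compared with cytokine alone wells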
[9] = inhibitors of HIV Env-driven cell fusion, dose response, cherry-pick (AID 652057); type: functional, cell-based
[10] = CEM21 lymphoblast cell cytotoxicity, dose response, cytotoxicity control for viral fusion inhibitor project, CellTiter-Glo luminescence, cherry-picked (AID 652042); type: functional, cell-based;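 also: potency for signal decrease meaning cytotoxicity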
[11] = ZM109 Env clade C HIV-1 fusion inhibitors, dose response, HeLa effector, CEM target cells, luciferase, cherry-pick (AID 652058); type: functional, cell-based
[12] = inhibitors of clade B AD8 Env fusion, dose response, cell-based, cherry-pick (AID 652062); type: functional;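 also: luciferase signal from cell-cell fusion driven by HIV-1 clade B AD8 Env; potency is for inhibitors of fusion seen as a drop in luminescence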

Beta-galactosidase, sequence (Q8VNN2 whole entry): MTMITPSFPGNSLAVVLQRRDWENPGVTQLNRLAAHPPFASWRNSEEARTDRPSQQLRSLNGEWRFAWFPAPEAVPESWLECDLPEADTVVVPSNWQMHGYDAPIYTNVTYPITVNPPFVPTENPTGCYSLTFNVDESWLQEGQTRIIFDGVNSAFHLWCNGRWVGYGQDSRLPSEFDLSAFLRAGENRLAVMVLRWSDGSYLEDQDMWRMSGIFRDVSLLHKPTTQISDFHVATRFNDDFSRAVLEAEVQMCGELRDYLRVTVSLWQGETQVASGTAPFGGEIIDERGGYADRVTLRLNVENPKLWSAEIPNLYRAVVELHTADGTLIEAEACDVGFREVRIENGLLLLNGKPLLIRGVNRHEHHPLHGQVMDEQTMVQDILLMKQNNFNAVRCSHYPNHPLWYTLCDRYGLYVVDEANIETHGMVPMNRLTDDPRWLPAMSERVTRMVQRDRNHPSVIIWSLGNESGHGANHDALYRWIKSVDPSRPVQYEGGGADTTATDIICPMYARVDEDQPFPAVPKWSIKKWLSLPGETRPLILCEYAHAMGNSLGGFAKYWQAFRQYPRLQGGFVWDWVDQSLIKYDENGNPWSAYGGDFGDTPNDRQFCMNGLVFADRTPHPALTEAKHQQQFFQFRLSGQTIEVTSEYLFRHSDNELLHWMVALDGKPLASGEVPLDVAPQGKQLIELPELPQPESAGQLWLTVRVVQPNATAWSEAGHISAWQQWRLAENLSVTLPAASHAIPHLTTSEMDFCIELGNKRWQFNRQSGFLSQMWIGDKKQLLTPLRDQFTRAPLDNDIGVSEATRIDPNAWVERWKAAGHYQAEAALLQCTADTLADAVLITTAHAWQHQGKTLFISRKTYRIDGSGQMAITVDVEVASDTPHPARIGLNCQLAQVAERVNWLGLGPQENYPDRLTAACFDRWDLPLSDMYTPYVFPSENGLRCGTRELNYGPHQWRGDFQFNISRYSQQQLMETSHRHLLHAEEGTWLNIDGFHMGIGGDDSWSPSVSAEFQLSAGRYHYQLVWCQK
Type-1 angiotensin II receptor, sequence (P30556 whole entry): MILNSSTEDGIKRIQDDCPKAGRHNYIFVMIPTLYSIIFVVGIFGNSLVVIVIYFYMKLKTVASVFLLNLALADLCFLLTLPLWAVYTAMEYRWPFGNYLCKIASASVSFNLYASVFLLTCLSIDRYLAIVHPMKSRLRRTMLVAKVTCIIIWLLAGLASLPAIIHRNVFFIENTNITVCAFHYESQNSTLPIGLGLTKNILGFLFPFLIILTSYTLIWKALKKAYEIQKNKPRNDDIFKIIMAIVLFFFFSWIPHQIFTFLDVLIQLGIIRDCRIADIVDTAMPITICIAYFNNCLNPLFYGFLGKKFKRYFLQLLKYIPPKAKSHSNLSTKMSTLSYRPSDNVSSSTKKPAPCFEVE
Genome polyprotein, sequence (P29990 2492-3391 limits assumed): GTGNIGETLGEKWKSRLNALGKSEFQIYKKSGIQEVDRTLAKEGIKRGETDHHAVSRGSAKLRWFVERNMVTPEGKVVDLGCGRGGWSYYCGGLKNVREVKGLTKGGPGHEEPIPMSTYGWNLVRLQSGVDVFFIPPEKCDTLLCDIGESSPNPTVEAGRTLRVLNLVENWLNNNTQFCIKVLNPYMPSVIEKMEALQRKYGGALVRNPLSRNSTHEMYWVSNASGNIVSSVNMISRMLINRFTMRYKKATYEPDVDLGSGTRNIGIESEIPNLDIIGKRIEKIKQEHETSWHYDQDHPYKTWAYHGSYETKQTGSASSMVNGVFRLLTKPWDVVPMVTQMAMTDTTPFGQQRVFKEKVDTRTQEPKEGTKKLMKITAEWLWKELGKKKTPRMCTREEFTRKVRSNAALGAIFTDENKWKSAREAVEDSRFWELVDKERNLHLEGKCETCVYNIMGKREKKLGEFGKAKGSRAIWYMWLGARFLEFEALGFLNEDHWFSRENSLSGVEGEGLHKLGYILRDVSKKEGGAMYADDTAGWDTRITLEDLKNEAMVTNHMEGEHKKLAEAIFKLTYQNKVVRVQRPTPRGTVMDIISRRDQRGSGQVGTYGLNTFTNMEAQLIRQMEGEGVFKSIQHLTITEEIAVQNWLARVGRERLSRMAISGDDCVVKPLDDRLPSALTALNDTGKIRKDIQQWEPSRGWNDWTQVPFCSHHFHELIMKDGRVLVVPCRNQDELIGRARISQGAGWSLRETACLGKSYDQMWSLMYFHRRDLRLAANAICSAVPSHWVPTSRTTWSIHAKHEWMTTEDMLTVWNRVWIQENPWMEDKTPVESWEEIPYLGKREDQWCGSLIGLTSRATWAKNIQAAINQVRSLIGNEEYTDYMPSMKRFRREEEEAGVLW
ATP-dependent molecular chaperone HSP82, sequence (C4YTQ8 whole entry): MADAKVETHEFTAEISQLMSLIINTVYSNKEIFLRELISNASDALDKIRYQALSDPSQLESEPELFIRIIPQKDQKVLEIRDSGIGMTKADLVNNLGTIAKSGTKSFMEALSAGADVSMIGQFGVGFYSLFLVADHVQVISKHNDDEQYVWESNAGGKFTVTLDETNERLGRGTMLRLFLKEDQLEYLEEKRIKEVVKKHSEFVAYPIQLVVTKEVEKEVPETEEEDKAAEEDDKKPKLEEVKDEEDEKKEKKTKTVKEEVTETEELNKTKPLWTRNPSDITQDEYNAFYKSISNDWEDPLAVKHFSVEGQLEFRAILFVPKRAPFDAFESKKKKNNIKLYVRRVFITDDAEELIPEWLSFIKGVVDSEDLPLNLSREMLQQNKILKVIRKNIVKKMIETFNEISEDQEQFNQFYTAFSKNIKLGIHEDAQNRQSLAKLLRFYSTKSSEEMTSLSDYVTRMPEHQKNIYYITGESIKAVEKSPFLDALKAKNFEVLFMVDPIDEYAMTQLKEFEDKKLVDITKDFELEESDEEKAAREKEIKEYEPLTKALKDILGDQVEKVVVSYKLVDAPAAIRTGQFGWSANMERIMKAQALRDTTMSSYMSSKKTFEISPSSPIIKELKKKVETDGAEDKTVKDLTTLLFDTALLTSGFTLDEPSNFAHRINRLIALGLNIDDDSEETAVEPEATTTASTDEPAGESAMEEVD
Serine/threonine-protein phosphatase, sequence (B9W6M3 whole entry): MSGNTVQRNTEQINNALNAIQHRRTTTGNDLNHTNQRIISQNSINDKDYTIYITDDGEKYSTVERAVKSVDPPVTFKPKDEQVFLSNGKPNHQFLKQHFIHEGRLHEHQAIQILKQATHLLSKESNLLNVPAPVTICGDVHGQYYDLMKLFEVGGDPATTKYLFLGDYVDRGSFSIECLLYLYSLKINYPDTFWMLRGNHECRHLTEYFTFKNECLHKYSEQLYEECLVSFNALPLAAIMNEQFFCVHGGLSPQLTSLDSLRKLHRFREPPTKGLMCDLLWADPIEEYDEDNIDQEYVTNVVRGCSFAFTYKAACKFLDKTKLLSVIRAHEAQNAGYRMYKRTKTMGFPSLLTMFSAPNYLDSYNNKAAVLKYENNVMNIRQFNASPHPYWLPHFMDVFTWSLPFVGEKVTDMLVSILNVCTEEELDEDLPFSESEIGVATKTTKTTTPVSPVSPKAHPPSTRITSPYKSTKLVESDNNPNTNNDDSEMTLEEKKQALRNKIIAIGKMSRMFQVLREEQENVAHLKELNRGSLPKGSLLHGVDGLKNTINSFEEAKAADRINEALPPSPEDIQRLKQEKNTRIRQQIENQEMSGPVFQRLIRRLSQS

IC50 (Genome polyprotein): 43 µM (active)
SMILES: CCOC(=O)c1c(NC(=O)/C=C/C(=O)O)sc(C)c1-c1ccc(Cl)cc1
CC50 (Vero): > 40 µM (active)

SMILES: O=C(C1CCCCC1)N1CCN(c2ccccn2)CC1
AC50 (Candida albicans): 0.398 µM (active)

SMILES: CCOc1ccc(NC(=O)c2cn(-c3ccc(OCC)cc3)c(=O)c3cc(OC)c(OC)cc23)cc1
EC50 [1]: > 160 µM (inconclusive)
EC50 [2]: 0.789 µM (active)
EC50 [3]: > 180 µM (inactive)
EC50 [4]: > 160 µM (inactive)

EC50 (Beta-galactosidase): > 40 µM (inactive)
IC50 [5]: 9.14 µM (active)
SMILES: Cc1ccc(C(=O)CNc2ccccc2)cc1

SMILES: CC1CCC(C(C)C)C(OC(=O)Cn2c(-c3ccccc3)[n+](C)c3ccccc32)C1 (centres undefined)
EC50 [6]: 3.06 µM (active)
EC50 [7]: 2.97 µM (active)
AC50 [8]: 2.37 µM (active)
AC50 (A-375): 41.3 µM (active)
AC50 (INS1; Rattus norvegicus, INS1): 3.2 µM (active)
AC50 (INS1; ins1): 2.71 µM (active)
AC50 [9]: 6.82 µM (active)
AC50 [10]: 8.36 µM (active)
AC50 [11]: 4.62 µM (active)
AC50 [12]: 5.44 µM (active)
